PMC1399460, “Synthesis and glycosidase inhibitory activity of new hexa-substituted C8-glycomimetics” (Beilstein Journal of Organic Chemistry, 2005)

What was measured:
Assay in all cases: glycosidase inhibition assay
Details in all cases: read-out: % inhibition at 1 mM
[1] = target: T1, α-L-fucosidase from bovine kidney (Bos taurus, UniProt Q2KIM0); assay type: biochemical
T1 construct: gene FUCA1; commercial native enzyme from kidney
T1 sequence (Q2KIM0 23-468): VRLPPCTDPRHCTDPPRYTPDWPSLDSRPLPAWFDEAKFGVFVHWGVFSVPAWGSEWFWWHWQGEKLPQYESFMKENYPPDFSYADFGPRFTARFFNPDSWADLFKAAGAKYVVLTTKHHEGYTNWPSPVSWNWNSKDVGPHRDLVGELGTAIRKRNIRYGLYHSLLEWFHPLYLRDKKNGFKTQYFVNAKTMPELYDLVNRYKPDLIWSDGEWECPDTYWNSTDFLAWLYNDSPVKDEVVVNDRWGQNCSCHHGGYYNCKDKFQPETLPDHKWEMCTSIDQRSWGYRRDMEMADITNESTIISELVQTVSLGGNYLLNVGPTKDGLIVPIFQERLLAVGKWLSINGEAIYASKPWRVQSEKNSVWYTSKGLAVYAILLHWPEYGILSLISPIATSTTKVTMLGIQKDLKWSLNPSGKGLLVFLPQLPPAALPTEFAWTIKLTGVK
Source text: glycosidase inhibition assay on α-L-fucosidase from bovine kidney

[2] = target: T2, α-D-glucosidase from Bacillus stearothermophilus (Geobacillus stearothermophilus, UniProt A0ACH1E9U3)
T2 construct: gene QSJ10_02665
T2 sequence (A0ACH1E9U3 1-555): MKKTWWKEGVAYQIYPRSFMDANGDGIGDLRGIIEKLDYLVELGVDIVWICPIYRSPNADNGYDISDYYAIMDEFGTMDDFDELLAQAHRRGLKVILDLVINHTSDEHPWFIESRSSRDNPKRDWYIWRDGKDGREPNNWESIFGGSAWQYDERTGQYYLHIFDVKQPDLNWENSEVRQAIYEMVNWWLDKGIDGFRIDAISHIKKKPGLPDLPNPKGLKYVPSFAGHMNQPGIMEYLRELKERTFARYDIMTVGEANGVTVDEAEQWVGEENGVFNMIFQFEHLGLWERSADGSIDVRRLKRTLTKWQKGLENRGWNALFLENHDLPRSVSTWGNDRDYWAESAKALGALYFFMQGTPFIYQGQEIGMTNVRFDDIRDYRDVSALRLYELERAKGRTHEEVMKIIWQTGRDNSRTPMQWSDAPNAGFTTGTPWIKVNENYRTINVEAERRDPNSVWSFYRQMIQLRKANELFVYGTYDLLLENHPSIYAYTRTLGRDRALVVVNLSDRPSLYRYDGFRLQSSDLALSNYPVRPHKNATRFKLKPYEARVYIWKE

[3] = target: T3, amyloglucosidase from Aspergillus niger (Aspergillus niger, UniProt P69328); assay type: biochemical
T3 construct: gene GLAA; commercial native enzyme preparation
Source text: glycosidase inhibition assay on amyloglucosidase from Aspergillus niger

[4] = target: T4, α-D-mannosidase from Jack beans (Canavalia ensiformis, UniProt C0HJB3); assay type: biochemical
T4 construct: commercial native enzyme preparation
T4 sequence (C0HJB3 1-562): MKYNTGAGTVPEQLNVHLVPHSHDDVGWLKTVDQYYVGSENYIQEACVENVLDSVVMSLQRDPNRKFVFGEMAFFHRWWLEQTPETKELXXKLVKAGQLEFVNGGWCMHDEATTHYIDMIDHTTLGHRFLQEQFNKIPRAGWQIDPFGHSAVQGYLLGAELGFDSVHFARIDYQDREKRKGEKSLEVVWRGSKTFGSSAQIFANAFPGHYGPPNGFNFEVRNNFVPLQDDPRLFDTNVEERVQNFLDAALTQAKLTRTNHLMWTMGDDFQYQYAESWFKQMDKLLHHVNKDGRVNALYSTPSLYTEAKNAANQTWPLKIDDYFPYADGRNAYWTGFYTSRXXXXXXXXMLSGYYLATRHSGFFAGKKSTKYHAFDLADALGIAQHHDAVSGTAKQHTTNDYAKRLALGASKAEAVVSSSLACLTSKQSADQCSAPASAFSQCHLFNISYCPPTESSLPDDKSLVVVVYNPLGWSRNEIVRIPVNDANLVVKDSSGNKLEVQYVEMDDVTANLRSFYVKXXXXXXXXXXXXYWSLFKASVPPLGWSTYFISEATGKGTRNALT
T4 sequence (C0HJB3 563-981): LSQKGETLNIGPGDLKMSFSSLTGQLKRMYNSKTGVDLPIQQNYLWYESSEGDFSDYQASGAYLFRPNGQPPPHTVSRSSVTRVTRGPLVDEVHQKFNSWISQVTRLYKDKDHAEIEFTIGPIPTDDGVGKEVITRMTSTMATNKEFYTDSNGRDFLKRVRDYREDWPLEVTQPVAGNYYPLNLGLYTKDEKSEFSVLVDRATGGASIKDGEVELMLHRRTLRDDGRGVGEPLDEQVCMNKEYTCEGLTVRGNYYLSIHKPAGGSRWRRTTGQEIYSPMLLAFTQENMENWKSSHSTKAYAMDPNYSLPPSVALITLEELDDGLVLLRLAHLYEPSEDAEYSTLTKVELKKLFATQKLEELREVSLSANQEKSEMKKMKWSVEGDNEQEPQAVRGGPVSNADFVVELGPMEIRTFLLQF
Source text: glycosidase inhibition assay on α-D-mannosidase from Jack beans

T3 sequence (P69328 25-640): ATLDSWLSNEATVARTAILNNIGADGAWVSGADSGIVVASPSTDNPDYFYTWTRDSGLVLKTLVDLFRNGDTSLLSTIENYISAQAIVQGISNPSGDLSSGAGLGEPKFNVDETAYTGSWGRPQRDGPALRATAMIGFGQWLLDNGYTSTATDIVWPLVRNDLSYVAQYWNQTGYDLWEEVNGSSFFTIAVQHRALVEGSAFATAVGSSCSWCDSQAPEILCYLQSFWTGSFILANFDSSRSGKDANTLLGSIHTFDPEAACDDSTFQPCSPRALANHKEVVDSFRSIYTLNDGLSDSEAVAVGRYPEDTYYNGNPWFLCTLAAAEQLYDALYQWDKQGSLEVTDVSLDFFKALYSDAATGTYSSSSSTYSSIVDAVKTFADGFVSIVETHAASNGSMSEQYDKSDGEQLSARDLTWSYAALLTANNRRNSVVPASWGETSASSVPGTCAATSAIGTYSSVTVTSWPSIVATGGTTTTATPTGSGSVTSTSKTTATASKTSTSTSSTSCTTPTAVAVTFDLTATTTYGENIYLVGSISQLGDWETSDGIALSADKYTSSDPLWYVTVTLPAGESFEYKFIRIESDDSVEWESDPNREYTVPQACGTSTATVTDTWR

inhibition at 1000 µM [1] [%] | SMILES | inhibition at 1000 µM [2] [%] | inhibition at 1000 µM [3] [%] | inhibition at 1000 µM [4] [%]
14 | O[C@H]1[C@H](O)[C@@H](O)C[C@H](O)[C@H](O)C[C@@H]1O [compound 5, C8 hexa-substituted carbasugar 5] | 9 |  | 
13 | O[C@H]1[C@H](O)[C@H](O)C[C@H](O)[C@H](O)C[C@H]1O [compound 6, C8 hexa-substituted carbasugar 6] |  |  | 
 | N[C@H]1C[C@H](O)[C@@H](O)[C@H](O)[C@@H](O)C[C@@H]1O [compound 15, aminocyclitol 15] |  | 28 | 16
 | N[C@@H]1C[C@@H](O)[C@@H](O)[C@H](O)[C@H](O)C[C@H]1O [compound 16, aminocyclitol 16] |  |  | 8
 | OCC(CO)N[C@H]1C[C@H](O)[C@@H](O)[C@H](O)[C@@H](O)C[C@@H]1O [compound 19, C8-voglibose mimetic 19] |  | 27 | 10
 | OCC(CO)N[C@@H]1C[C@@H](O)[C@@H](O)[C@H](O)[C@H](O)C[C@H]1O [compound 20, aminocyclitol 20] | 6 | 29 | 8
